# Reference: PMC3404744 (Molecular Pharmaceutics, 2011)
# What was measured:
# UGT1A1 [1] = target: T1, UGT1A1 (Homo sapiens, UniProt P22309); test: Glucuronidation kinetics with recombinant human UGT1A1; format: in vitro ADME; conditions: for Glucuronide isomers formed by UGT1A1: recombinant UGT1A1
# T1 sequence (P22309 26-533): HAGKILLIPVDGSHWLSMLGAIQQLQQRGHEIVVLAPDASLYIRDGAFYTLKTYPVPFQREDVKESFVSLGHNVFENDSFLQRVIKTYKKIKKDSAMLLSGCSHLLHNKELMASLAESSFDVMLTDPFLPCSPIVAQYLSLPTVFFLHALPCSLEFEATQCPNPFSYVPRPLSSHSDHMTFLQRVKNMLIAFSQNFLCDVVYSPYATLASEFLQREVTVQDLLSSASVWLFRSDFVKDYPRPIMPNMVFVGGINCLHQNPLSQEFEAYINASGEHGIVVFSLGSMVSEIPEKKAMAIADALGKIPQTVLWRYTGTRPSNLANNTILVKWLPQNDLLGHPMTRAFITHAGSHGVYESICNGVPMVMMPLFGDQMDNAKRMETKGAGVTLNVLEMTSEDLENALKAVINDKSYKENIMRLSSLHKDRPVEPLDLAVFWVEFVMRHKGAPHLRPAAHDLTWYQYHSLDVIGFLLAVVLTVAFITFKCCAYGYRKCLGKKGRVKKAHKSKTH
# [2] = tested on: 12 recombinant human UGT isoforms; test: Phenotyping using 12 recombinant UGTs; format: in vitro ADME; conditions: by CLint
# [3] = tested on: pooled human liver microsomes (pHLM); test: Glucuronidation kinetic profile in pooled human liver microsomes; format: in vitro ADME; conditions: flavonoids 4′-O-glucuronidation, SN-38 glucuronidation
# UGT1A1 [4] = target: T1, UGT1A1; format: in vitro ADME
# [5] = after a standard therapy; cited from earlier work
# UGT1A9 = target: T2, UGT1A9 (Homo sapiens, UniProt O60656); test: Glucuronidation kinetics with recombinant human UGT1A9; format: in vitro ADME; conditions: 10 μM
# T2 sequence (O60656 26-530): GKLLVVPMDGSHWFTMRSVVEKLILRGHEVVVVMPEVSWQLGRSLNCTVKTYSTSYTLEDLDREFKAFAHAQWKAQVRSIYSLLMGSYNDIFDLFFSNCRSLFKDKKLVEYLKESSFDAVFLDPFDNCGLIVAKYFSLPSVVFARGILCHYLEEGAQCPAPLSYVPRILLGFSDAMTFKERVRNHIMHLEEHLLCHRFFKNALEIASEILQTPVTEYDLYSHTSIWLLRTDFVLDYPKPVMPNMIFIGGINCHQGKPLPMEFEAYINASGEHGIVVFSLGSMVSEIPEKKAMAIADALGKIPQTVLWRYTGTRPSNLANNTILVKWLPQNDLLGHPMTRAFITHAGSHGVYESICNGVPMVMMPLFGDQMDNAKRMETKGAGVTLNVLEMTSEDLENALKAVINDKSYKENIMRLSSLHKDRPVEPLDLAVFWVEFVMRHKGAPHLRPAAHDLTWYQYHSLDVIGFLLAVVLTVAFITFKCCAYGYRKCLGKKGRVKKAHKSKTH
Km for recombinant UGT1A1 (4′-O-glucuronidation) compared with pooled HLM (UGT1A1 [1]),Glucuronide isomers formed by UGT1A1 (UGT1A1 [1]),Main isoforms glucuronidating the flavonoid [2],Pattern of kinetic profile [3],Glucuronidation in pHLM correlated with UGT1A1 activities (RAF approach) (UGT1A1 [4]) [%],"UGT1A9 activity, folds less than that of UGT1A1 (UGT1A9) [folds]",Structure (SMILES),In vivo concentration [5] [µM]
essentially identical,"3-O-, 6-O-, and 4′-O-glucuronide","UGT1A1, 1A7 and 1A9",substrate inhibition,–,–,"O=c1c(O)c(-c2ccc(O)cc2)oc2ccc(O)cc12 [364′THF, 3,6,4′-trihydroxyflavone]",–
–,–,–,substrate inhibition,103 ± 8,~5,"CCc1c2c(nc3ccc(O)cc13)-c1cc3c(c(=O)n1C2)COC(=O)[C@]3(O)CC [SN-38, 7-ethyl-10-hydroxycamptothecin]",< 0.1
essentially identical,3′-O- and 4′-O-glucuronide,"UGT1A1, 1A7 and 1A9",substrate inhibition,–,–,"O=c1c(O)c(-c2ccc(O)c(O)c2)oc2ccccc12 [33′4′THF, 3,3′,4′-trihydroxyflavone]",–
